Experimental findings from US20050228188A1, “Astaxanthin medium-chain fatty acid ester, process for producing the same and composition containing the ester” (Suntory Limited, priority 2002, published 2005) are described below.

The nature of this data set: Digestibility of astaxanthins in rats: astaxanthin content in blood plasma and liver by HPLC after oral administration. Conditions: for digestibility (content of astaxanthin in blood plasma and liver) compared with astaxanthin extracted from Haematococcus (Astax9000H): rat, in vivo, po, 100 mg/kg. As to the method:
Using a commercially available astaxanthin extracted from Chlorophyceae of Haematococcus (Itano, product name: Astax9000H) and astaxanthins mono- and di-esterified with a medium-chain fatty acid (Asta-C8-monoester and Asta-C8-diester), the digestibility of these astaxanthins was studied using rats. For the experiment, these astaxanthins were diluted with olive oil so as to obtain a ratio of 100 mg/kg in the conversion of a free astaxanthin, and the diluted astaxanthins were administered to rats (Wister rat). The content of astaxanthin contained in the blood (blood plasma) and the liver of each rat was measured using HPLC. The blood and liver were sampled at 3, 5, 7 and 10 hours after the administration.

As to `CCCCCCCC(=O)OC1CC(C)(C)C(C=CC(C)=CC=CC(C)=CC=CC=C(C)C=CC=C(C)C=CC2=C(C)C(=O)C(O)CC2(C)C)=C(C)C1=O` (stereo not drawn) [Asta-C8-monoester, astaxanthin octanoic acid monoester], the “digestibility (content of astaxanthin in blood plasma and liver) compared with astaxanthin extracted from Haematococcus (Astax9000H)” value is listed as “much better digestibility”. Also, the “digestibility, rank among the astaxanthins tested” value (rats, oral, 100 mg/kg in conversion of free astaxanthin, blood plasma and liver at 3, 5, 7 and 10 hours) was “most digested”.
On to `CCCCCCCC(=O)O[C@H]1CC(C)(C)C(/C=C/C(C)=C/C=C/C(C)=C/C=C/C=C(C)/C=C/C=C(C)/C=C/C2=C(C)C(=O)[C@@H](OC(=O)CCCCCCC)CC2(C)C)=C(C)C1=O` [Asta-C8-diester, astaxanthin octanoic acid diester], for which the “digestibility (content of astaxanthin in blood plasma and liver) compared with astaxanthin extracted from Haematococcus (Astax9000H)” value is given as “much better digestibility”.
